Assay results from US9353088B2, “Crystalline pharmaceutical and methods of preparation and use thereof” (SARcode Bioscience Inc., priority 2009, dated 2016).

Experiment: Dynamic Vapor Sorption (DVS) analysis
Format: physicochemical
Method: Dynamic Vapor Sorption (DVS) analysis was performed with a Surface Measurement Systems DVS-1 water vapor sorption analyzer. The experiments were run by placing the sample on a quartz holder on top of a microbalance, and allowing the sample to equilibrate at 50% relative humidity (r.h.) before starting the pre-defined humidity program. The program proceeded in the following steps: 1 hour at 50% r.h.; 50% to 0% r.h. at a rate of 5% r.h. change per hour; 5 hours at 0% r.h; 0% r.h to […]. at 5% r.h change per hour; 5 hours at 95% r.h.; 95% r.h. to 50% r.h. at a rate of 5% r.h. change per hour, and followed by one hour at 50% r.h.

CS(=O)(=O)c1cccc(C[C@H](NC(=O)c2c(Cl)cc3c(c2Cl)CCN(C(=O)c2ccc4ccoc4c2)C3)C(=O)O)c1 [Crystalline Form A]
water content by DVS (after mass loss at lowest relative humidity of 0.4%): 0.5 mole water per mole free acid | water content by DVS (at the start of the experiment): about 0.9 mole water per mole free acid | water content by DVS (mass gain at 95% relative humidity): 1.1 mole water per mole free acid

CS(=O)(=O)c1cccc(C[C@H](NC(=O)c2c(Cl)cc3c(c2Cl)CCN(C(=O)c2ccc4ccoc4c2)C3)C(=O)O)c1 [Crystalline Form B]
hygroscopicity (DVS, 50 hours, 5 hours at 95% relative humidity): does not appear to be hygroscopic
